Measurements reported in patent US20130109711A1, “NOVEL COMPOUNDS” (priority 2010, published 2013).

Each compound was assayed against T1, human Cav2.2α (α1B) subunit, along with the human β3 and α2δ1 auxiliary subunits (Homo sapiens, UniProt Q00975) (assay: hCav2.2 assay (IonWorks planar array electrophysiology)). Settings: HEK293 cells; inhibition of current elicited by the 1st depolarising pulse by 50%; read-out: mean pIC50 value (tonic pIC50) (converted).
T1 construct: expressed in transfected cells; plasmids pCIN5-hCav2.2, pCIH-hCav β3, pCIP-α2δ1
Assay type: cell-based
Protocol: Compounds of the invention may be tested for in vitro biological activity in the hCav2.2 assay in accordance with the following studies:
Stable cell lines expressing the human Cav2.2α (α1B) subunit, along with the human β3 and α2δ1 auxiliary subunits were created following sequential transfection and selection of human embryonic kidney (HEK293) cells. HEK293 cells were cultured in Dulbecco's modified Eagles media/F12 media (Invitrogen, Cat #041-95750V) containing 10% fetal bovine serum, with added L-glutamine (2 mM; Invitrogen, Cat #25030-024) and non-essential amino acids (5%; Invitrogen, Cat #11140-035). Initially HEK293 cells were transfected with two plasmid vectors for expression of the hCav2.2α subunit (pCIN5-hCav2.2 which carries a neomycin resistance marker) and the hCav β3 subunit (pCIH-hCav β3 which carries a hygromycin resistance marker). Clonal cell lines were isolated following selection in media supplemented with 0.4 mg ml^−1 Geneticin G418 (Invitrogen, Cat #10131-027) and 0.1 mg ml^−1 hygromycin (Invitrogen, Cat #10687-010). These clonal cell lines were assessed for Cav2.2α/β3-mediated current expression using the IonWorks planar array electrophysiology technology (described below). A clonal line was identified that gave a reasonable level of functional Cav2.2α/β3 current expression. This cell line was transfected with a plasmid vector for expression of the human α2δ1 subunit (pCIP-α2δ1 which carries a puromycin resistance marker) and clonal cell lines isolated following selection in media containing 0.62 μg ml^−1 puromycin (Sigma, Cat # P-7255), in addition to 0.4 mg ml^−1 Geneticin G418 and 0.1 mg ml^−1 hygromycin. Several cell lines were identified that gave robust levels of Cav2.2α/β3/α2δ1-mediated current expression and one of these was selected for compound profiling. Expression of all three subunits within this cell line was continuously maintained by the inclusion of G418 (0.4 mg ml^−1), hygromycin (0.1 mg ml^−1) and puromycin (0.62 μg ml^−1). Cells were maintained at 37° C. in a humidified environment containing 5% CO2 in air. Cells were liberated from the T175 culture flasks for passage and harvesting using TrpLE (Invitrogen, Cat #12604-013).
Cells were grown to 30-60% confluence in T175 flasks and maintained at 30° C. for 24 hrs prior to recording. Cells were lifted by removing the growth media, washing with Ca^2+free PBS (Invitrogen, Cat #14190-094) and incubating with 3 ml of warmed (37° C.) TrpLE (Invitrogen, Cat #12604-013) for 6 minutes. Lifted cells were suspended in 10 ml of extracellular buffer. Cell suspension was then placed into a 15 ml tube and centrifuged for 2 minutes at 700 rpm. After centrifugation, the supernatant was removed and the cell pellet was resuspended in 4.5 ml of extracellular solution.
Currents were recorded at room temperature (21-23° C.) using the IonWorks planar array electrophysiology technology (Molecular Devices Corp.). Stimulation protocols and data acquisition were carried out using a microcomputer (Dell Pentium 4). In order to determine planar electrode hole resistances (Rp), a 10 mV, 160 ms potential difference was applied across each hole. These measurements were performed before cell addition. After cell addition a seal test was performed prior to antibiotic (amphotericin) circulation to achieve intracellular access. Leak subtraction was conducted in all experiments by applying a 160 ms hyperpolarizing (10 mV) prepulse 200 ms before the test pulses to measure leak conductance. Test pulses stepping from the holding potential (VH) of −90 mV to +10 mV were applied for 20 ms and repeated 10 times at a frequency of 10 Hz. In all experiments, the test pulse protocol was performed in the absence (pre-read) and presence (post-read) of a compound. Pre- and post-reads were separated by a compound addition followed by a 3-3.5 min incubation.
The intracellular solution contained the following (in mM): K-gluconate 120, KCl 20 mM, MgCl2 5, EGTA 5, HEPES 10, adjusted to pH 7.3. […]

T1 sequence (Q00975 whole entry): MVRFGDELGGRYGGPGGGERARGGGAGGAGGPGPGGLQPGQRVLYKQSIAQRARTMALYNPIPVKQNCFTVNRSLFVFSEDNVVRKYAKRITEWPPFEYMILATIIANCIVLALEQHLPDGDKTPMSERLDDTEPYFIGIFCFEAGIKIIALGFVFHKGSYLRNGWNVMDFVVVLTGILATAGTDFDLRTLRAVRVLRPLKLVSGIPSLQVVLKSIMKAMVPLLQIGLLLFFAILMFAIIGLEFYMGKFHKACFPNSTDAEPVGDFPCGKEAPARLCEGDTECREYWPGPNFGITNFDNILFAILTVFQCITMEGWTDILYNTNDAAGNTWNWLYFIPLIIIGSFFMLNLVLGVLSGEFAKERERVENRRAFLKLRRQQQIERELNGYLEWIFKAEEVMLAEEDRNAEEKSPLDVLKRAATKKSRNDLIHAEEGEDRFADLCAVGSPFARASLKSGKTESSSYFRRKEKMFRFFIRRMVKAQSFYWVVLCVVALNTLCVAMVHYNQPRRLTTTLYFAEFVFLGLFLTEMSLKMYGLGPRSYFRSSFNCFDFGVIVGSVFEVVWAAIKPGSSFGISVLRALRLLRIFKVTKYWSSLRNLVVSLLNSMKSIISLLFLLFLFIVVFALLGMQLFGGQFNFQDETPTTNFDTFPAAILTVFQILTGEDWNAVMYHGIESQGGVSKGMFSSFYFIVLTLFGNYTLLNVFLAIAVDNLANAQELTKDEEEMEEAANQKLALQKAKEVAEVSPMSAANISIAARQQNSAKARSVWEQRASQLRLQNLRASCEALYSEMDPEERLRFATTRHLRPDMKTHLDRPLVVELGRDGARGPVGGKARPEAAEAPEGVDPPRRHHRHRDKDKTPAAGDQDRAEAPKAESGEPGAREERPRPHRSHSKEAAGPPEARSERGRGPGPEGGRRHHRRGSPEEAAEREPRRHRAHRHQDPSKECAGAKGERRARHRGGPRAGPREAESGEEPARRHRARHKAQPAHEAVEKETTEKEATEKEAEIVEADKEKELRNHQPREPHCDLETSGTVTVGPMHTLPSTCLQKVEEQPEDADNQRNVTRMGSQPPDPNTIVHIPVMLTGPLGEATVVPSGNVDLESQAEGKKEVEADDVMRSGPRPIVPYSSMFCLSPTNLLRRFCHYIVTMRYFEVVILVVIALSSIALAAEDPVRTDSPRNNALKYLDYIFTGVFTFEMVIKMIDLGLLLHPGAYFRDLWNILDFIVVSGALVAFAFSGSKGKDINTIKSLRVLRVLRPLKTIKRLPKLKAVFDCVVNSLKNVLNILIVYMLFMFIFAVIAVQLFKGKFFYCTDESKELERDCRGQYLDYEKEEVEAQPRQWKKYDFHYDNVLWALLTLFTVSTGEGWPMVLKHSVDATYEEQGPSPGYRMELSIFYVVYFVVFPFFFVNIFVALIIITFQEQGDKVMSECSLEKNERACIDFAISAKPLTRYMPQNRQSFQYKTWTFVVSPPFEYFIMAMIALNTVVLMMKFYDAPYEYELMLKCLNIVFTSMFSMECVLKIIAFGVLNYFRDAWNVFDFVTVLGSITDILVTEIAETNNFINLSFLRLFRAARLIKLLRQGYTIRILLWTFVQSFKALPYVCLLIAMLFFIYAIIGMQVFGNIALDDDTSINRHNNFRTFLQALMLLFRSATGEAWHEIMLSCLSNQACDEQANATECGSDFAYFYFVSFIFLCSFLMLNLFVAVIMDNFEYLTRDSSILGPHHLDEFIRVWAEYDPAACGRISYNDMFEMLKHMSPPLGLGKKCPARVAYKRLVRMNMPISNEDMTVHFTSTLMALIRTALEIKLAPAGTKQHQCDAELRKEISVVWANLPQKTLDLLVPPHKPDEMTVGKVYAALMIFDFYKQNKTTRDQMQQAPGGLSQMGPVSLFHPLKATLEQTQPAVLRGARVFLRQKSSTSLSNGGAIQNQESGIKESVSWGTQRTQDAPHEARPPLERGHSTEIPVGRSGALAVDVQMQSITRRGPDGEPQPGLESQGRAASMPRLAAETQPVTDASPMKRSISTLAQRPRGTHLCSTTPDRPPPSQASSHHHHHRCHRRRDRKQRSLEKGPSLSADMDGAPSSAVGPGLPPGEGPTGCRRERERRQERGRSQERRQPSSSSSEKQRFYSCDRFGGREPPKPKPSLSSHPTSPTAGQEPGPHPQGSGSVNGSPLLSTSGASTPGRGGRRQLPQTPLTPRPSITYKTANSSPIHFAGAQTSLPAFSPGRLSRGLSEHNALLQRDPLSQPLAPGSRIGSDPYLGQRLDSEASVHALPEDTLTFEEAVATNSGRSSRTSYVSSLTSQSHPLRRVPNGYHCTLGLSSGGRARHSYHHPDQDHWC
T1 sequence (P54284 whole entry partner): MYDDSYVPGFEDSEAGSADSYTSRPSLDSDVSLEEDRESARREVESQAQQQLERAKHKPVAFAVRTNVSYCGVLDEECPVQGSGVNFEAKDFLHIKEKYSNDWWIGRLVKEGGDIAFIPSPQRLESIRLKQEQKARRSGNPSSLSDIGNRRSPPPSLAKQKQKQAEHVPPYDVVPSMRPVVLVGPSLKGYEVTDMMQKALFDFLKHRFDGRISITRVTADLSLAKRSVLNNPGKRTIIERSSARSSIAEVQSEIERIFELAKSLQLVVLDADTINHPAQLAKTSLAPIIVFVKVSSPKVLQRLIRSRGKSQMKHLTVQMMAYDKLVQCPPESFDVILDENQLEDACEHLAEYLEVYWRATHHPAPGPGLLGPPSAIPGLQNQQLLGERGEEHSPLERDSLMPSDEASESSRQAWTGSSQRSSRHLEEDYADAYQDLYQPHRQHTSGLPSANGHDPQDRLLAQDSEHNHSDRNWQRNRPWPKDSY
T1 sequence (P54289 25-946 partner limits assumed): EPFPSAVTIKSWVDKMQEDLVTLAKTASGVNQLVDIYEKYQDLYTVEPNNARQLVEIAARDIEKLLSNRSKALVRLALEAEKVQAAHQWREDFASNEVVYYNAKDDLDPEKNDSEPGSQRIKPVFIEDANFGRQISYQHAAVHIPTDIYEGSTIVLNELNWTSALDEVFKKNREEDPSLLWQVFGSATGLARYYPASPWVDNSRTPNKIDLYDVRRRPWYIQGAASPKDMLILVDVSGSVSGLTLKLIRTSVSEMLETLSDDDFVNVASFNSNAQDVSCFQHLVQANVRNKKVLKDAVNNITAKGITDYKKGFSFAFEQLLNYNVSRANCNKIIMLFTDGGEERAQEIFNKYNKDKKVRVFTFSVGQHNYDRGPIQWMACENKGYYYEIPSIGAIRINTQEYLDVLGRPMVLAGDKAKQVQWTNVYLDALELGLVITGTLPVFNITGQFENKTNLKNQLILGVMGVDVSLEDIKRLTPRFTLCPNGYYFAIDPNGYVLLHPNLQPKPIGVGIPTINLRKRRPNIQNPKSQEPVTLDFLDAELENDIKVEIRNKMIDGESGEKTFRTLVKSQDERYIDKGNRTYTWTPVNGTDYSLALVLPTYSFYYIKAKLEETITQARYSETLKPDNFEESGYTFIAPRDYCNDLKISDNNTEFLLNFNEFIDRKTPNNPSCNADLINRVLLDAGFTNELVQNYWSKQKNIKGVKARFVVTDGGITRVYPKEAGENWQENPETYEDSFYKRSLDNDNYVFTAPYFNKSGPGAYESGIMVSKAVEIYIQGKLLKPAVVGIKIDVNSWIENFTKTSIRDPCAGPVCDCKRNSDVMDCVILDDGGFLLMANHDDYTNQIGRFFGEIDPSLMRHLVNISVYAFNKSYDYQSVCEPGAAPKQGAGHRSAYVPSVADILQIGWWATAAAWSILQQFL
T1 sequence (P54289 947-1103 partner limits assumed): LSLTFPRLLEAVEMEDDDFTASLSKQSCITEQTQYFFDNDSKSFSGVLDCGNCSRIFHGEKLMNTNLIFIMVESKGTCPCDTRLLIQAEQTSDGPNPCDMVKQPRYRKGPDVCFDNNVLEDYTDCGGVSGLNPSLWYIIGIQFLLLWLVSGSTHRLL

Question: Which IC50 does the source give for `O=C1NCCCC12CCCN(S(=O)(=O)c1cc(C(F)(F)F)cc(C(F)(F)F)c1)C2` (stereo not drawn) [Compound 27, 8-{[3,5-Bis(trifluoromethyl)phenyl]sulfonyl}-2,8-diazaspiro[5.5]undecan-1-one] here?
Answer: ≥ 31.6 µM

Question: With `Cc1ccc(S(=O)(=O)N2CCCC3(CCNC3=O)C2)cc1C(F)(F)F` (stereo not drawn) [Compound 23, 7-{[4-Methyl-3-(trifluoromethyl)phenyl]sulfonyl}-2,7-diazaspiro[4.5]decan-1-one] as the compound, how does the IC50 read?
Answer: ≥ 31.6 µM

Question: For `O=C1NCCC12CCCN(S(=O)(=O)c1cc(Cl)cc(Cl)c1)C2` (stereo not drawn) [Compound 19, 7-[(3,5-Dichlorophenyl)sulfonyl]-2,7-diazaspiro[4.5]decan-1-one], which IC50 is on record?
Answer: ≥ 31.6 µM

Question: `O=C1NCCC12CCCN(S(=O)(=O)c1cc(C(F)(F)F)ccc1C(F)(F)F)C2` (stereo not drawn) [Compound 16, 7-{[2,5-Bis(trifluoromethyl)phenyl]sulfonyl}-2,7-diazaspiro[4.5]decan-1-one] was tested. Which IC50 did it give?
Answer: ≥ 31.6 µM

Question: How did the IC50 turn out when `O=C1NCCCC12CCCN(S(=O)(=O)c1ccc(C(F)(F)F)cc1)C2` (stereo not drawn) [Compound 10, 8-{[4-(Trifluoromethyl)phenyl]sulfonyl}-2,8-diazaspiro[5.5]undecan-1-one] was run?
Answer: ≥ 31.6 µM

Question: For `Cc1ccc(C(F)(F)F)cc1S(=O)(=O)N1CCCC2(CCNC2=O)C1` (stereo not drawn) [Compound 26, 7-{[2-Methyl-5-(trifluoromethyl)phenyl]sulfonyl}-2,7-diazaspiro[4.5]decan-1-one], which IC50 is on record?
Answer: ≥ 31.6 µM

Question: With `Cc1ccc(S(=O)(=O)N2CCCC3(CCNC3=O)C2)c(OC(F)(F)F)c1` (stereo not drawn) [Compound 24, 7-({4-Methyl-2-[(trifluoromethyl)oxy]phenyl}sulfonyl)-2,7-diazaspiro[4.5]decan-1-one] as the compound, how does the IC50 read?
Answer: ≥ 31.6 µM

Question: For `Cc1ccc(S(=O)(=O)N2CCCC3(CCNC3=O)C2)c(C)c1` (stereo not drawn) [Compound 7, 7-[(2,4-Dimethylphenyl)sulfonyl]-2,7-diazaspiro[4.5]decan-1-one], which IC50 is on record?
Answer: ≥ 31.6 µM

Question: `CN1CCC2(CCCN(S(=O)(=O)c3ccc(C(F)(F)F)cc3)C2)C1=O` (stereo not drawn) [Compound 2, 2-Methyl-7-{[4-(trifluoromethyl)phenyl]sulfonyl}-2,7-diazaspiro[4.5]decan-1-one] was tested. Which IC50 did it give?
Answer: ≥ 31.6 µM

Question: With `Cc1ccc(S(=O)(=O)N2CCCC3(CCNC3=O)C2)c(C(F)(F)F)c1` (stereo not drawn) [Compound 30, 7-{[4-Methyl-2-(trifluoromethyl)phenyl]sulfonyl}-2,7-diazaspiro[4.5]decan-1-one] as the compound, how does the IC50 read?
Answer: ≥ 31.6 µM

Question: Which IC50 does the source give for `O=C1OCCC12CCCN(S(=O)(=O)c1ccc(C(F)(F)F)cc1)C2` (stereo not drawn) [Compound 28, 7-{[4-(Trifluoromethyl)phenyl]sulfonyl}-2-oxa-7-azaspiro[4.5]decan-1-one] here?
Answer: ≥ 31.6 µM

Question: For `O=C1NCCC12CCCN(S(=O)(=O)c1cccc(OC(F)F)c1)C2` (stereo not drawn) [Compound 33, 7-({3-[(Difluoromethyl)oxy]phenyl}sulfonyl)-2,7-diazaspiro[4.5]decan-1-one], which IC50 is on record?
Answer: ≥ 31.6 µM

Question: How did the IC50 turn out when `O=C1NCCC12CCCN(S(=O)(=O)c1ccc(C(F)(F)F)cc1Br)C2` (stereo not drawn) [Compound 21, 7-{[2-Bromo-4-(trifluoromethyl)phenyl]sulfonyl}-2,7-diazaspiro[4.5]decan-1-one] was run?
Answer: ≥ 31.6 µM

Question: How did the IC50 turn out when `O=C1NCCC12CCCN(S(=O)(=O)c1ccc(OC(F)(F)F)cc1)C2` (stereo not drawn) [Compound 6, 7-({4-[(Trifluoromethyl)oxy]phenyl}sulfonyl)-2,7-diazaspiro[4.5]decan-1-one] was run?
Answer: ≥ 31.6 µM

Question: Which IC50 does the source give for `O=C1NCCC12CCCN(S(=O)(=O)c1cccc(OC(F)(F)F)c1)C2` (stereo not drawn) [Compound 15, 7-({3-[(Trifluoromethyl)oxy]phenyl}sulfonyl)-2,7-diazaspiro[4.5]decan-1-one] here?
Answer: ≥ 31.6 µM

Question: How did the IC50 turn out when `O=C1NCCCC12CCCN(S(=O)(=O)c1cccc(C(F)(F)F)c1)C2` (stereo not drawn) [Compound 12, 8-{[3-(Trifluoromethyl)phenyl]sulfonyl}-2,8-diazaspiro[5.5]undecan-1-one] was run?
Answer: ≥ 31.6 µM

Question: How did the IC50 turn out when `CCOc1ccc(S(=O)(=O)N2CCCC3(CCCN(C)C3=O)C2)cc1` (stereo not drawn) [Compound 34, 8-{[4-(Ethyloxy)phenyl]sulfonyl}-2-methyl-2,8-diazaspiro[5.5]undecan-1-one] was run?
Answer: ≥ 31.6 µM

Question: How did the IC50 turn out when `O=C1NCCCC12CCCN(S(=O)(=O)c1cc(F)cc(C(F)(F)F)c1)C2` (stereo not drawn) [Compound 17, 8-{[3-Fluoro-5-(trifluoromethyl)phenyl]sulfonyl}-2,8-diazaspiro[5.5]undecan-1-one] was run?
Answer: ≥ 31.6 µM

Question: For `CN1CCCC2(CCCN(S(=O)(=O)c3ccc(C(F)(F)F)cc3)C2)C1=O` (stereo not drawn) [Compound 5, 2-Methyl-8-{[4-(trifluoromethyl)phenyl]sulfonyl}-2,8-diazaspiro[5.5]undecan-1-one], which IC50 is on record?
Answer: ≥ 31.6 µM

Question: For `COc1ccc(C(F)(F)F)cc1S(=O)(=O)N1CCCC2(CCNC2=O)C1` (stereo not drawn) [Compound 32, 7-{[2-(Methyloxy)-5-(trifluoromethyl)phenyl]sulfonyl}-2,7-diazaspiro[4.5]decan-1-one], which IC50 is on record?
Answer: ≥ 31.6 µM

Question: Which IC50 does the source give for `O=C1NCCC12CCCN(S(=O)(=O)c1cccc(C(F)(F)F)c1)C2` (stereo not drawn) [Compound 9, 7-{[3-(Trifluoromethyl)phenyl]sulfonyl}-2,7-diazaspiro[4.5]decan-1-one] here?
Answer: ≥ 31.6 µM

Question: With `O=C1NCCCC12CCCN(S(=O)(=O)c1cccc(OC(F)F)c1)C2` (stereo not drawn) [Compound 31, 8-({3-[(Difluoromethyl)oxy]phenyl}sulfonyl)-2,8-diazaspiro[5.5]undecan-1-one] as the compound, how does the IC50 read?
Answer: ≥ 31.6 µM

Question: `O=C1NCCC12CCCN(S(=O)(=O)c1cc(C(F)(F)F)cc(C(F)(F)F)c1)C2` (stereo not drawn) [Compound 8, 7-{[3,5-Bis(trifluoromethyl)phenyl]sulfonyl}-2,7-diazaspiro[4.5]decan-1-one] was tested. Which IC50 did it give?
Answer: ≥ 31.6 µM

Question: For `Cc1ccc(S(=O)(=O)N2CCCC3(CCCNC3=O)C2)cc1` (stereo not drawn) [Compound 35, 8-[(4-Methylphenyl)sulfonyl]-2,8-diazaspiro[5.5]undecan-1-one], which IC50 is on record?
Answer: ≥ 31.6 µM

Question: How did the IC50 turn out when `O=C1NCCC12CCCN(S(=O)(=O)c1cc(F)cc(C(F)(F)F)c1)C2` (stereo not drawn) [Compound 14, 7-{[3-Fluoro-5-(trifluoromethyl)phenyl]sulfonyl}-2,7-diazaspiro[4.5]decan-1-one] was run?
Answer: ≥ 31.6 µM

Question: Which IC50 does the source give for `O=C1OCCC12CCCN(S(=O)(=O)c1ccc(OC(F)(F)F)cc1)C2` (stereo not drawn) [Compound 29, 7-({4-[(Trifluoromethyl)oxy]phenyl}sulfonyl)-2-oxa-7-azaspiro[4.5]decan-1-one] here?
Answer: ≥ 31.6 µM

Question: Which IC50 does the source give for `O=C1NCCCC12CCCN(S(=O)(=O)c1ccc(OC(F)(F)F)cc1)C2` (stereo not drawn) [Compound 13, 8-({4-[(Trifluoromethyl)oxy]phenyl}sulfonyl)-2,8-diazaspiro[5.5]undecan-1-one] here?
Answer: ≥ 31.6 µM

Question: For `O=C1NCCC12CCCN(S(=O)(=O)c1ccc(OC(F)(F)F)c(Cl)c1)C2` (stereo not drawn) [Compound 20, 7-({3-Chloro-4-[(trifluoromethyl)oxy]phenyl}sulfonyl)-2,7-diazaspiro[4.5]decan-1-one], which IC50 is on record?
Answer: ≥ 31.6 µM

Question: `Cc1cc(C(F)(F)F)cc(S(=O)(=O)N2CCCC3(CCNC3=O)C2)c1` (stereo not drawn) [Compound 25, 7-{[3-Methyl-5-(trifluoromethyl)phenyl]sulfonyl}-2,7-diazaspiro[4.5]decan-1-one] was tested. Which IC50 did it give?
Answer: ≥ 31.6 µM

Question: How did the IC50 turn out when `O=C1NCCCC12CCCN(S(=O)(=O)c1cc(C(F)(F)F)ccc1C(F)(F)F)C2` (stereo not drawn) [Compound 18, 8-{[2,5-Bis(trifluoromethyl)phenyl]sulfonyl}-2,8-diazaspiro[5.5]undecan-1-one] was run?
Answer: ≥ 31.6 µM
